Assay results published in article PMC5859250, “Contribution of transformation products towards the total herbicide toxicity to tropical marine organisms” (Scientific Reports, 2018).
In brackets after ≈: the same amount, converted by molar mass. Entries after “also recorded” stand apart in the source; their conditions may differ.

Experiments:
Dunaliella sp. = test: Microalgal PAM fluorometry assay, inhibition of ∆F/Fm′ (24 h, 96-well plate); format: cell-based; conditions: for LOEC, effect on ∆F/Fm′ / NOEC, effect on ∆F/Fm′: pure transformation product, ANOVA p < 0.05
Source text: (§1) Microalgae play a critical role in the marine food web and have been used in a number of sensitive assays for the assessment of toxicity of both herbicides and their transformation products[13],[16],[60]. High throughput 96 well plate designs allow for increased replication and a wide range of concentrations especially when paired with pulse amplitude modulation (PAM) fluorometry[50],[61]. PAM fluorometry measures chlorophyll fluorescence and can be used to calculate inhibitions of effective quantum yield ∆F/Fm′, which is proportional to reduced photosynthetic efficiency[62] and growth in microalgae[63] and can be plotted against toxicant concentrations to derive concentrations that inhibit ∆F/Fm′ by 10, 20 and 50% (IC10, IC20 and IC50). In the present study the green algae (Dunaliella sp.) and coral symbiont (Symbiodinium sp.) were exposed to herbicides and aged herbicide solutions for 24 h in a 96-well plate format. A Maxi-Imaging-PAM (I-PAM) (Walz, GmbH Germany) was used to measure inhibition of ∆F/Fm′ using settings provided previously[36] and below.
(§2) Symbiodinium cells were isolated from coral by air blasting branches of Acropora tenuis colonies collected (collected under the permit G10-33440.1) at 2–5 m depth in Nelly Bay, Magnetic Island, GBR[36]. Symbiodinium cells were inoculated into sterile IMK growing media, the culture purified, DNA extracted, and Clade C1 identified as published previously[64],[65]. Cultures were maintained at 26 °C, 60 µE PAR, 14:10 light:dark photoperiod inside environmental chambers (Steridium e500). The Dunaliella sp. (CS-353) (Chlorophyceae) was obtained from the CSIRO Collection of Living Microalgae (CCLM). The algae was subcultured and grown in F2 media. For the toxicology assays, an exponentially growing culture was employed[63] and density adjusted by hemocytometry under 10× magnification. Day 7 sub-cultures were used throughout the experiment.
(§3) Herbicide solutions were delivered into each treatment plate using a Perkin Elmer Janus liquid handling system. Each well of the black 96-well plates (Perkin Elmer) received 100 µl herbicide solution as well as 100 µl of algal suspension (added via multi-channel pipette) and the solution was gently mixed. […] Each plate included a 3 µg l^−1 positive diuron control (n = 4) to confirm consistent sensitivities among the replicate algal subcultures. Treatments positions were randomised across the plates in duplicate[50],[61],[66]. Symbiodinium culture plates were incubated over a 12:12 h light:dark cycle at 26 °C and 60–70 µmol photons m^−2 s^−1 and Dunaliella sp. Plates incubated at: 26 °C and 130 µmol photons m^−2 s^−1. Microalgae were exposed for 24 h prior to PAM measurements. Samples were subjected to the 50 µmol photons m^−2 s^−1 actinic light for 1 min prior to measurement in the Maxi-IPAM (Actinic light = 1, ML = 10, ML frequency = 8, gain = 2 and damping = 1).
(§4) The model was constrained by applying a lower limit of 0% inhibition and all curves were tested for normality of the residuals and a replicate test was applied to assess the goodness of fit[36]. The probability that ICX values generated by the logistic curves were statistically different between parent and aged herbicide solutions was tested by applying the F test in Graph Pad Prism v6. ICXs were considered different when p < 0.05. Where inhibition data could not be fitted to logistic curves, one-way analysis of variance (ANOVA) was performed to identify treatments which caused significant (p < 0.05) inhibition comparison with control treatments (NCSS v9, Utah, USA). The larval prawn experimental data was arcsine square root transformed prior to statistical analysis.

Symbiodinium sp. = test: as above; format: cell-based; conditions: for LOEC, effect on ∆F/Fm′ / NOEC, effect on ∆F/Fm′: pure transformation product, ANOVA p < 0.05
Source text: as §1, §2, §3, §4

[1] = system: prawn (Penaeus monodon) larvae; test: Prawn larvae assay, metamorphosis of nauplii into protozoea (24 h static); format: in vivo
Description: The giant tiger prawn (Penaeus monodon) can be found throughout the tropical Indo-Pacific region and can be obtained from aquaculture facilities and has a well-described life cycle. The aim of the larval prawn assay was to determine whether the herbicides and transformation products inhibit early naupliar development. Prawn eggs hatch into their first larval stage (nauplii), typically 12–15 h after spawning. During development the nauplii are lecithotrophic, and over the course of the next 36 h, nauplii pass through 6 sub-stages before metamorphosing into protozoae[67],[68].
Freshly hatched nauplii were harvested by light attraction over 30 min, and washed and aerated for 10 min with seawater, and transported to AIMS in Townsville, Queensland. […] The toxicity assays were performed in incubator shakers (set to 30 °C) under very low light and with gentle shaking to prevent individuals adhering to the side of experimental containers.
The larval stock was gently concentrated via reverse-gravity filtration to a higher density before dispensing 8–10 individuals per 20 ml glass scintillation vials. Additional positive control treatments in the form of 4 concentrations of copper II chloride solution (2 to 900 µg l^−1 Cu), were included for test validation. The static assay was terminated after 24 h and 10% seawater formalin was added as a preservative for later microscopy. Metamorphosis was considered successful when nauplii had developed into protozoea.
as §4

[2] = Penaeus monodon (giant tiger prawn), in vivo, 24 h
[3] = 24 h, vs solvent control, ANOVA p < 0.05, aged solutions as concentration of parent herbicide
[4] = 24 h, read-out: IC20 parent (inhibition of ∆F/Fm′ by 20%)

| Compound | Inhibition of ∆F/Fm′ (Dunaliella sp.; Dunaliella sp., 458 µg l^−1, significant (ANOVA, p < 0.05)) [%] | LOEC, effect on ∆F/Fm′ (Dunaliella sp.; Dunaliella sp.) [µg/L] | NOEC, effect on ∆F/Fm′ (Dunaliella sp.; Dunaliella sp.) [µg/L] | Inhibition of ∆F/Fm′ (Symbiodinium sp.; Symbiodinium sp., 458 µg l^−1) [%] | LOEC, effect on ∆F/Fm′ (Symbiodinium sp.; Symbiodinium sp.) [µg/L] | NOEC, effect on ∆F/Fm′ (Symbiodinium sp.; Symbiodinium sp.) [µg/L] | LOEC, prawn larval metamorphosis [1, 2] [µg/L] | Effect on prawn larval metamorphosis (in words) ([1]; in vivo) | Inhibition of ∆F/Fm′ (in words) (Dunaliella sp.; Dunaliella sp., concentrations up to 273 µg l^−1) | Inhibition of ∆F/Fm′ (in words) (Symbiodinium sp.; Symbiodinium sp., concentrations up to 273 µg l^−1) | LOEC, prawn larval metamorphosis [1, 3] [µg/L] | NOEC, prawn larval metamorphosis [1, 3] [µg/L] | IC20 (Dunaliella sp.; [4]) [µg/mL] | IC10 parent (inhibition of ∆F/Fm′ by 10%) (Dunaliella sp.; Dunaliella sp., 24 h, pure compound) | Inhibition of ∆F/Fm′ (Dunaliella sp.; Dunaliella sp., evident at 56 µg l^−1) | IC20 (Symbiodinium sp.; [4]) [µg/mL] | IC10 parent (inhibition of ∆F/Fm′ by 10%) (Symbiodinium sp.; Symbiodinium sp., 24 h, pure compound) | Inhibition of ∆F/Fm′ (Symbiodinium sp.; Symbiodinium sp., evident at 84 µg l^−1) |
| --- | --- | --- | --- | --- | --- | --- | --- | --- | --- | --- | --- | --- | --- | --- | --- | --- | --- | --- |
| CCNc1nc(N)nc(Cl)n1 [DIA, desisopropylatrazine] | < 8 | 458.31 | 148.97 | < 8 | >458.31 | 458.31 | 3.5 | significantly inhibiting metamorphosis at all concentrations tested | – | – | – | – | – | – | – | – | – | – |
| Nc1ccc(Cl)c(Cl)c1 [3,4-DCA, 3,4-dichloroaniline] | – | >273.41 | 273.41 | – | >273.41 | 273.41 | – | – | no significant inhibition; also recorded: did not inhibit ∆F/Fm′ | no significant inhibition; also recorded: did not inhibit ∆F/Fm′ | 188 | 54 | – | – | – | – | – | – |
| CC(C)Nc1nc(N)nc(Cl)n1 [DEA, desethylatrazine] | – | 55.63 | 33.30 | – | 83.68 | 55.63 | 3.8 | significantly inhibiting metamorphosis at all concentrations tested | – | – | – | – | 0.31 (≈ 1.65 µM) | 157 (142–173) µg l^−1 | 9–35% | 0.218 (≈ 1.16 µM) | 103 (93–115) µg l^−1 | 9–35% |
